Like-named read-outs stand apart in the source and are kept apart here.

For data set [1] the following is noted: 70 min. The method, then: 098 g of hydroxyethyl-β-CD in which, of 21 hydroxyl groups contained in one β -CD molecule, an average of 1.6 groups are substituted through an ether bond with a hydroxyethyl group (hereinafter referred to as HE-β-CD) or 0.090 g of hydroxypropyl-β-CD in which, of 21 hydroxyl groups contained in one β -CD molecule, an average of 0.9 groups are substituted through an ether bond with a hydroxypropyl group (hereinafter referred to as HP-β -CD), and the volume of each solution was adjusted to 10 ml to prepare aqueous CD solutions of a concentration of 6 mM.
To the solutions were added 2 mg each of taxol, and the resulting mixtures were stirred at room temperature (20 to 25°C) at 5,000 r.p.m. As a control, 2 mg of taxol were added to 10 ml of water, and the resulting mixture was stirred at room temperature (20 to 25°C) at 5,000 r.p.m. After 70 minutes of stirring, the solutions were passed through a filter of a pore diameter of 0. 45µm, and the concentration of taxol contained in the filtrates was determined by highperformance liquid chromatography (HPLC).
Then, 20 mg of taxol were added to the aqueous DM-β-CD solution, 2 mgof taxol to the aqueous HP-β-CD solution, and 1 mg each of taxol to the other aqueous CD solutions, and the resulting mixtures were stirred at room temperature (20 to 25°C) at 5,000 r.p.m. As a control, 1 mg of taxol was added to 10 ml of water, and the resulting mixture was stirred at room temperature (20 to 25°C) at 5,000 r.p.m. After 70 minutes of stirring, the solutions were passed through a filter with a pore diameter of 0.45µm, and the concentration of taxol contained in the filtrates was determined.

The format of data set [2] is physicochemical. On the procedure: Into 70 ml of a mixture of methanol and water (volume ratio, 1:1), the same volume of a mixture of acetonitrile and water (volume ratio, 1: 1), the same volume of a mixture of acetone and water (volume ratio, 1: 1) and the same volume of mixture of tetrahydrofuran and water (volume ratio, 1:1) were added 5 mg each of taxol. To the resulting taxol solutions were added 500 mg each of DM-β-CD, and the resulting mixtures were stirred vigorously by a stirrer at a temperature of 25°C. After two hours of stirring, 100 ml each of water were added thereto, and the resulting solutions were freeze-dried, so as to obtain powders by completely removing the water and the organic solvents. Then, 8 mg each of the thus-obtained powders were dissolved into 1 ml of water while stirring, and the resulting solutions were passed through a filter with a pore size of 0. 45µm, and the concentration of DM-β-CD and of the taxol contained in the filtrates was determined by HPLC. […]
Two taxol solutions were prepared by dissolving 5 mg each of taxol into 100 ml each of mixtures of methanol and water (volume ratio, 1:1). To these solutions were added 50 mg of HE-β-CD or HP-β-CD, and the resulting mixtures were vigorously stirred using a stirrer at 25°C. […]

For the compound 2, 6-di-O-methyl- β -CD [DM-β-CD], in data set [1], the “Solubility of Taxol” value was found to be 47.1 µ g/ml and the “Solubilty of Taxol” value amounted to 1236 µ g/ml.

As for hydroxyethyl-β-CD [HE-β-CD], in data set [1], the “Solubility of Taxol” value is 0.5 µ g/ml and the “Solubilty of Taxol” value is 22.2 µ g/ml. Moreover, in data set [2], the “Solubility of Taxol” value is on record as 1.3 µ g/ml.

Turning to `CC(=O)O[C@H]1C(=O)[C@@]2(C)[C@H]([C@H](OC(=O)c3ccccc3)[C@]3(O)C[C@H](OC(=O)[C@H](O)[C@@H](NC(=O)c4ccccc4)c4ccccc4)C(C)=C1C3(C)C)[C@]1(OC(C)=O)CO[C@@H]1C[C@@H]2O` [CD not added (Control), taxol], the “Solubility of Taxol” value in data set [1] worked out at 0 µ g/ml.

Take hydroxypropyl-β-CD [HP-β-CD]: in data set [1], the “Solubility of Taxol” value stood at 1.1 µ g/ml and the “Solubilty of Taxol” value was 68.9 µ g/ml. The “Solubility of Taxol” value in data set [2] is 6.1 µ g/ml.

For the compound 6-mono-O-maltosyl-β-CD [G2-β-CD], in data set [1], the “Solubility of Taxol” value is 0.5 µ g/ml and the “Solubilty of Taxol” value was 23.0 µ g/ml.
